Among the data in a melting point compilation (Tetko et al.; mined from patent text by program, amines drawn as free bases though some values may be those of a salt) are melting point values, retold here.

By melting point is commonly meant the temperature, or range, at which the solid turns liquid.

Structures are written as SMILES.

As for `CC(=O)NC[C@H]1CN(c2ccc(N3CCC4(CC3)CS4)c(F)c2)C(=O)O1`, the melting point lay within 152 to 154 °C.
`O=C(O)c1cc(-n2c3c(c(-c4ccccc4)c2-c2ccccc2)CCCC3)ccc1O`: the melting point was in the range of 246 to 247 °C.
As for `OCCCNC1=Nc2ccccc2C1(O)c1ccccc1` (stereo not drawn), the melting point lay within 215 to 217 °C.
Consider `CNCCn1nc2c3c(c(NCCNCCO)ccc31)C(=O)c1c(OCc3ccccc3)ccc(OCc3ccccc3)c1-2`, for which the melting point lay within 186 to 189 °C.
In turn, `CCOC(=O)C(=O)N(CCOS(C)(=O)=O)N=Cc1ccccc1` came in with a melting point of 93 to 95 °C.
For `COC(=O)Cc1c(C)n(-c2nc3ccccc3o2)c2ccc(OC)cc12` the value was 125 to 126 °C; for `CC(C(=O)O)c1ccc(C=C2CCCC2=O)cc1` (stereo not drawn), 106 to 107 °C.
In turn, `COC(=O)NCC1Cc2cc(Cl)cc(C3CCCCC3)c2O1` (stereo not drawn) showed a melting point of 100 to 103 °C.
As for `CN1C(=O)N(c2c(Cl)cccc2Cl)Cc2cnc(N)nc21`, the melting point was in the range of 176 to 184 °C.
The figure for `C[Si](C)(Cn1cncn1)c1ccc(-c2ccccc2)cc1` is 79 to 86 °C.
`COc1ccccc1[C@H](c1cccc2ccccc12)[C@@](C)(C#N)C(=O)N1CCC(C2CCCC(C(F)(F)F)C2)CC1` (stereo partly drawn) yielded a melting point of 160 to 165 °C.
The compound `CN(C)C(=O)CCc1cc(-c2ccncc2)sc1-c1ccncc1` came in with a melting point of 166 to 167 °C.
Compound `CC(C)(C)c1ccc2oc(-c3ccc(C=Cc4ccc(-n5ncc(-c6ccccc6)n5)cc4)cc3)nc2c1` returned a melting point of 230 to 231 °C.
The figure for `COc1cc(F)ccc1Oc1c(Cl)nc(C)nc1NS(=O)(=O)c1ccc(C(C)(C)C)cc1` is 164 to 165 °C.
In turn, `COC(=O)CCCCCNC(=O)c1csc(NC(=O)NCc2ccccc2)n1` had a melting point of 140 °C.
The figure for `CCOC(CCn1c(-c2ccc(F)cc2)c(-c2ccccc2)c(C(=O)Nc2ccccc2)c1C(C)C)OCC` is 125 to 128 °C; for `COc1nncc(-c2cccc(C(F)(F)F)c2)n1` it is 95 to 97 °C.
Consider `O=C1Cc2cc(F)ccc2C(c2ccc(Cl)cc2)N1` (stereo not drawn), for which the melting point lay in the range of 160 to 161 °C.
In the case of `O[C@@H]1CNCC[C@H]1Oc1ccc(F)cc1` (relative stereo), the melting point fell in the range of 121 to 123 °C.
`Cn1cc(CO)c(=O)c2ccc(F)cc21` gave a melting point of 219 to 222 °C.
In the case of `CCOC(=O)C(NC(=O)CNC(=O)CC)C(=O)OCC`, the melting point was in the range of 120 to 122 °C.
Consider `COc1ccc(CCOc2ccnc(Cl)c2)cc1OC`, for which the melting point is 116 to 117 °C.
With `CCCCCCCCCCCCCCCCS(=O)(=O)NCCc1ccc(C(=O)O)cc1`, the melting point fell in the range of 168 to 169 °C.
Compound `CCCCc1nn(C(F)(F)F)c(C(=O)O)c1Cc1ccc(C2(C(=O)O)CC=CC2)s1` yielded a melting point of 134 to 135 °C.
For `NC(=NC(=O)c1nc(Cl)c(N)nc1N)NCCCCCCCCCCCC(=O)O` the value was 194 to 196 °C; for `CCCCCC(CC(=O)Nc1cc(C(N)=O)ccc1C(C)(C)C)c1ccc(OCCCOC)cc1OC` (stereo not drawn), 65 to 67 °C; for `CC(C)[C@@H](NCC1(O)OC[C@@H](O)[C@@H](O)[C@@H]1O)C(=O)O` (stereo partly drawn), 125 to 126 °C.
In turn, `CC1(C)c2cc(C#N)ccc2OC1N=C=S` (stereo not drawn) showed a melting point of 52 °C.
In turn, `Nc1ccc(C#Cc2ccc(C#Cc3ccccc3)cc2[N+](=O)[O-])cc1` yielded a melting point of 166 to 168 °C.
The compound `COc1cc(C=CC(=O)c2c(OCC=C(C)C)ccc3c(C)cc(=O)oc23)cc(OC)c1OC` gave a melting point of 148 to 150 °C.
In turn, `CC(CC(=O)OCc1ccccc1)NC(=O)CCNC(=O)OC(C)(C)C` (stereo not drawn) yielded a melting point of 70 to 72 °C.
The figure for `Oc1cnc(C(F)(F)F)nc1` is 179 to 181 °C; for `O=C(O)c1ccc(/C=C/c2ccc3c(=O)[nH]ncc3c2)cc1` it is greater than 345 °C.
For `CNC(=O)c1cccc(-c2c(C)cc(C)cc2C)c1`, the melting point was 143 °C.
The compound `CC(=O)Nc1ccc(-c2nc3ccccc3o2)cc1` showed a melting point of 214 to 215 °C.
As to `O=C(NCCO)c1cccc(-c2cccc3nn(Cc4ccccc4F)cc23)c1`, the melting point was in the range of 159 to 160 °C.
For `CCCCCCCCCCOC1CCC(=O)N1` (stereo not drawn) the value was 44 to 46 °C; for `CCNC(=O)C1=C(C(=O)Nc2cc(OC3CCCC3)c(Cl)cc2F)CCCC1`, 187 to 189 °C.
`CC(Cc1c[nH]c2ccccc12)(NC(=O)OC1C2CC3CC(C2)CC1C3)C(=O)NCC(NC(=O)CSc1ncc[nH]1)c1ccccc1` (stereo not drawn) came in with a melting point of 112 to 122 °C.
For `COC(=O)C1=C(Cl)C(=NO)CC(c2ccc(Cl)c(OC)c2F)N1` (stereo not drawn), the melting point fell in the range of 174 to 176 °C.
Compound `Clc1cc(OCCOc2ccc3ccccc3c2)cc(Cl)c1Br` had a melting point of 140 to 142 °C.
Compound `Cc1cc2oc(-c3ccccn3)nc2cc1N=C=S` yielded a melting point of 192 to 194 °C.
In turn, `Cn1ncc(C(=O)N2CCOCC2)c1C(=O)Nc1ccn2nc(Br)nc2c1` showed a melting point of 198 to 214 °C.
For `CCOC(=O)C1(C)OC2(O)C3CCCN3C(=O)C(Cc3ccccc3)N2C1=O` (stereo not drawn) the value was 134 to 136 °C; for `CCOC(=O)C1=C(COCC(C)N=[N+]=[N-])NC(C)=C(C(=O)OC)C1` (stereo not drawn), 115 °C; for `Nc1cc(O)ccc1/C=C/c1ccc(O)cc1`, 229 to 232 °C.
`COc1cc(OCC(=O)O)c(C)cc1SCc1ccc(-c2cccc(C(F)(F)F)c2)cc1` had a melting point of 138 to 139 °C.
For the compound `COc1cc(C(O)C#Cc2cnc(N)nc2N)cc(OC)c1OC` (stereo not drawn), the melting point lay in the range of 203 to 205 °C.
Compound `CCc1cc(C(=O)c2ccccc2Cl)c(-n2cnnc2CNC(=O)c2ccc(Cl)c(Cl)c2)s1` had a melting point of 158 to 160 °C.
As to `O=C(c1ccc(F)cc1)c1ccc(C(=O)c2ccc(F)cc2)s1`, the melting point turned out to be 186 °C.
For `CCC(CC)N(Cc1ccc(C(=O)OC)cc1)S(=O)(=O)c1ccc(C)cc1` the value was 106 to 108 °C; for `CCOC(=O)C1=C(C)NC(C(OC)OC)=C(C(=O)OC)C1c1ccccc1[N+](=O)[O-]` (stereo not drawn), 122 to 124 °C; for `O=C1c2ccccc2C(=O)N1CCc1cc(-c2ccc(F)cc2)no1`, 155 to 156 °C.
`Cc1[nH]c(=O)c(C#N)cc1-c1ccc(S(C)=O)cc1` (stereo not drawn) yielded a melting point of 290 to 291 °C.
`Cn1ncnc1/C=C/c1ccccc1` showed a melting point of 67 to 70 °C.
For `COC(=O)c1cccc(OCc2cc(Br)cs2)c1C(=O)OC` the value was 65 °C; for `O=C1C=CCC(CCc2ccccc2)(c2ccccc2)O1` (stereo not drawn), 130 °C; for `O=C(OCCCc1ccccc1)c1ccc2c(c1)C(Cl)(Cl)c1cc(C(=O)OCCCc3ccccc3)ccc1-2`, 91 to 92 °C.
Regarding `O=c1nc(C2CCCCC2)c2cc(Cl)ccc2[nH]1`, the melting point turned out to be 270 °C.
As to `CC(C)CON=Cc1ccc2c(c1)c1cc(-c3ccc(Cl)cc3Cl)c(=O)n(C)c1n2C`, the melting point fell in the range of 100 to 110 °C.
`CC1(C)CC(OC(=O)N=NC(=O)OC2CC(C)(C)N(OC3CCCCC3)C(C)(C)C2)CC(C)(C)N1OC1CCCCC1`: the melting point was 189 to 191 °C.
For `Cc1cc(C(O)(C(F)(F)F)C(F)(F)F)cc(C)c1NCCO`, the melting point fell in the range of 110 to 113 °C.
`COC1CC=C(c2ccc(C(C)=O)cc2)CC1` (stereo not drawn): the melting point was 40 to 42 °C.
As for `CCC(CC)c1nn(-c2ccc(Br)cn2)cc1CCCOc1c(CC(=O)O)cccc1OC`, the melting point was 94 to 95 °C.
The figure for `COCCNC(=O)c1cccc(-c2ccc3c(c2)N(c2cccc(Cl)c2Cl)CC3)c1` is 99 to 100 °C; for `O=[N+]([O-])c1ccc(S(=O)(=O)NCCc2ccccc2)c([N+](=O)[O-])c1` it is 127 to 128 °C.
The figure for `O=C1NC(=O)[C@@]2(C[C@@H](C(=O)NCCN3CCN(C(c4ccccc4)c4ccccc4)CC3)Oc3ccc(F)cc32)N1` is 200 to 205 °C; for `C#Cc1ccc(C(CC2CCCC2)C(=O)O)cc1` (stereo not drawn) it is 80 to 83 °C; for `c1ccc(COC2CCN(Cc3cc4ccccc4[nH]3)CC2)cc1` it is 103 to 105 °C.
`CS(=O)(=O)c1ccc(-c2cnn(C3Cc4ccccc4C3)c(=O)c2-c2ccc(F)cc2)cc1` registered a melting point of 97 to 100 °C.
For `C#CC(C)OC(=O)c1cccc2ccccc12` (stereo not drawn) the value was 66 to 68 °C; for `CC(=O)Nc1nc(-c2ccc([N+](=O)[O-])cc2)c[nH]1`, 242 to 244 °C; for `CCCCCCOc1ccc(NC(=O)c2cnn(C)c2C)cc1C#N`, 150 to 151 °C.
`CCCOc1c(OC)c(OC)cc(C)c1C(=O)c1c(Cl)cccc1Cl` showed a melting point of 143 °C.
The compound `N#Cc1ccc(C2(CBr)OCCO2)cc1` yielded a melting point of 92.4 °C.
The compound `CC(C)(C)NC(=O)[C@@H]1C[C@H](N2CCOCC2)CN1C(=O)[C@@H](O)[C@H](Cc1ccccc1)NC(=O)[C@H](CC(N)=O)NC(=O)OCc1ccccc1` showed a melting point of 115 to 117 °C.
Turning to `CCOc1cc(N)c(Cl)cc1C(=O)NC1CCN(CC2CCN(C(=S)N(C)C)CC2)CC1`, the melting point lay within 210 to 212 °C.
In the case of `COC(=O)c1ccc2c(c1)S(=O)(=O)NCN2C1CC1`, the melting point lay within 178 to 180 °C.
The compound `Brc1cccc(Br)c1OC1C=CC(Oc2c(Br)cccc2Br)C1` (stereo not drawn) registered a melting point of 205 to 206 °C.
Regarding `O=P(O)(O)C1CCCN1` (stereo not drawn), the melting point was 275 to 280 °C.
`O=[N+]([O-])c1cc(Cc2cc(Cl)ccc2O)c(O)c(Cc2cc(Cl)ccc2O)c1` showed a melting point of 220 °C.
For `Cc1cc(NC2=NN(c3ccccc3)CC2)cc(C)c1O` the value was 154 to 158 °C; for `COC(=O)c1ccc(C=CC(=O)c2ccc3c(c2)C(C)(C)CCC3(C)C)cc1`, 89 to 91 °C; for `O=C1C(=CCc2ccccc2)SC(=S)N1N=c1sc2ccccc2s1`, 233 to 234 °C.
Regarding `O=c1c2ccc(F)cc2oc2ccc(C(F)(F)F)cc12`, the melting point was 140 to 142 °C.
Turning to `COc1ccc(/C=C/c2ccc3c(=O)n(-c4ccccn4)ncc3c2)cc1`, the melting point was in the range of 213 to 214 °C.
`CCOC(=O)Cn1c(-c2cc3c(cc2[N+](=O)[O-])OCO3)nc2ccccc21` registered a melting point of 136 to 138 °C.
Take `O=C(Nc1ccccc1F)OC1CN2CCC1CC2` (stereo not drawn): the melting point was in the range of 124 to 126 °C.
